Measurements from patent publication US4499094A, “Derivatives of arene and hetero-arene carboxamides and their use as medicaments” (Pharmuka Laboratoires, priority 1982, dated 1985).

Target: T1, "peripheral" receptor sites of benzodiazepines (Rattus norvegicus, UniProt P16257)
T1 construct: on kidney membranes from the rat; from tissue; host or cells: rat kidney membranes
Test: Affinity for "peripheral" receptor sites of benzodiazepines: displacement of tritiated diazepam on kidney membranes from the rat
Format: binding
Settings: not given
Description: The products have been studied according to the method of C. BRAESTRUP et al, Proc. Natl. Acad. Sci. USA, 1977, 74, 3805, on kidney membranes from the rat.

Structure (SMILES)	Ki
CCC(C)N(C)C(=O)c1cc2ccccc2c(-c2ccccc2)n1 (stereo not shown) [Example 10, N-methyl N(1-methylpropyl) 1-phenyl isoquinoline 3-carboxamide]	2 nM

Same assay, conditions: read-out: Ki

Structure (SMILES)	Ki
CCN(CC)C(=O)c1cc(-c2ccccc2)c2ccccc2c1 [Example 1, N,N-diethyl 4-phenyl naphthalene 2-carboxamide]	5.4 nM
CCN(CC)C(=O)c1cc(-c2ccccc2)c2ccccc2n1 [Example 3, N,N-diethyl 4-phenyl quinoline 2-carboxamide]	27 nM
CCN(CC)C(=O)c1cc2ccccc2c(-c2ccccc2)n1 [Example 5, N,N-diethyl 1-phenyl isoquinoline 3-carboxamide]	150 nM
CCN(CC)C(=O)c1cc2ccccc2c(-c2ccccc2Cl)n1 [Example 6, N,N-diethyl 1-(2-chloro-phenyl) isoquinoline 3-carboxamide]	17 nM
O=C(c1cc2ccccc2c(-c2ccccc2)n1)N1CCCCC1 [Example 7, 1-[3-(1-phenylisoquinolyl)carbonyl]piperidine]	210 nM
CCN(CC)C(=O)c1cc2ccccc2c(-c2cccc(Cl)c2)n1 [Example 11, N,N-diethyl 1-(3-chlorophenyl) isoquinoline 3-carboxamide]	9 nM
CCN(CC)C(=O)c1cc2ccccc2c(-c2ccc(C)cc2)n1 [Example 12, N,N-diethyl 1-(4-methylphenyl) isoquinoline 3-carboxamide]	99 nM
O=C(c1cc2ccccc2c(-c2ccccc2Cl)n1)N1CCCCC1 [Example 13, 1-[[1-(2-chlorophenyl) 3-isoquinolyl]carbonyl]piperidine]	72 nM
CCCN(CCC)C(=O)c1cc2ccccc2c(-c2ccccc2Cl)n1 [Example 14, N,N-dipropyl 1-(2-chlorophenyl) isoquinoline 3-carboxamide]	18 nM
CCN(CC)C(=O)c1cc2ccccc2c(-c2cccc(F)c2)n1 [Example 15, N,N-diethyl 1-(3-fluorophenyl) isoquinoline 3-carboxamide]	20 nM
CCC(C)N(C)C(=O)c1cc2ccccc2c(-c2ccccc2F)n1 (stereo not shown) [Example 16, N-methyl N-(1-methylpropyl) 1-(2-fluorophenyl) isoquinoline 3-carboxamide]	0.9 nM
CN(Cc1ccccc1)C(=O)c1cc2ccccc2c(-c2ccccc2Cl)n1 [Example 17, N-methyl N-phenylmethyl 1-(2-chlorophenyl) isoquinoline 3-carboxamide]	117 nM
CC(C)N(C(=O)c1cc2ccccc2c(-c2ccccc2Cl)n1)C(C)C [Example 24, N,N-di(1-methylethyl) 1-(2-chlorophenyl) isoquinoline 3-carboxamide]	20 nM
C=CC(C)N(C)C(=O)c1cc2ccccc2c(-c2ccccc2Cl)n1 (stereo not shown) [Example 25, N-methyl N(1-methylpropene-2-yl) 1-(2-chlorophenyl) isoquinoline 3-carboxamide]	3 nM
CCN(CC)C(=O)c1cc2sccc2c(-c2ccccc2Cl)n1 [Example 31, N,N-diethyl 4-(2-chlorophenyl) thieno[3,2-c]pyridine 6-carboxamide]	9 nM
CCN(CC)C(=O)c1cc2ccsc2c(-c2ccccc2Cl)n1 [Example 32, N,N-diethyl 7-(2-chlorophenyl) thieno[2,3-c]pyridine 5-carboxamide]	6.3 nM
CCN(CC)C(=O)c1nc(-c2ccccc2)c2ccccc2n1 [Example 33, N,N-diethyl 4-phenyl quinazoline 2-carboxamide]	27 nM
CCC(C)N(C)C(=O)c1cc(-c2ccccc2F)c2ccccc2n1 (stereo not shown) [Example 35, N-methyl N(1-methylpropyl) 4-(2-fluorophenyl) quinoline 2-carboxamide]	2 nM
CCN(CC)C(=O)c1cc(-c2cccc([N+](=O)[O-])c2)c2ccccc2n1 [Example 38, N,N-diethyl 4-(3-nitrophenyl) quinoline 2-carboxamide]	30 nM
CCCCN(CCCC)C(=O)c1cc2ccccc2c(-c2ccccc2)n1 [Example 39, N,N-dibutyl 1-phenyl isoquinoline 3-carboxamide]	21 nM
CCC1CCCCN1C(=O)c1cc2ccccc2c(-c2ccccc2)n1 (stereo not shown) [Example 40, 2-ethyl 1-[(1-phenyl 3-isoquinolyl)carbonyl]piperidine]	16 nM
CC[C@@H]1CCCCN1C(=O)c1cc2ccccc2c(-c2ccccc2)n1 [Example 41, 2(R)-ethyl 1-[(1-phenyl 3-isoquinolyl)carbonyl]piperidine]	22 nM
CC[C@H]1CCCCN1C(=O)c1cc2ccccc2c(-c2ccccc2)n1 [Example 42, 2(S)-ethyl 1-[(1-phenyl 3-isoquinolyl)carbonyl]piperidine]	13 nM
CCN(CC)C(=O)c1cc2ccccc2c(-c2cccc(C(F)(F)F)c2)n1 [Example 43, N,N-diethyl 1-(3-trifluoromethylphenyl) isoquinoline 3-carboxamide]	13 nM
CCC(C)N(C)C(=O)c1cc2ccsc2c(-c2ccccc2Cl)n1 (stereo not shown) [Example 46, N-methyl N-(1-methylpropyl) 7-(2-chlorophenyl) thieno[2,3-c]pyridine 5-carboxamide]	7 nM
CCC(C)N(C)C(=O)c1cc2sccc2c(-c2ccccc2Cl)n1 (stereo not shown) [Example 47, N-methyl N-(1-methylpropyl) 4-(2-chlorophenyl) thieno[3,2-c]pyridine 6-carboxamide]	1 nM

System: binding sites of (^3 H) diazepam in the brain
Test: not given
Settings: brain, in words; cited from earlier work

Structure (SMILES)	affinity for the binding sites of (^3 H) diazepam in the brain (central level)
CN1C(=O)CN=C(c2ccc(Cl)cc2)c2cc(Cl)ccc21 [Ro-5-4864]	inactive at the central level

Same assay, conditions: rank order; cited from earlier work

Structure (SMILES)	classification by decreasing affinity, "cerebral" type
CN1C(=O)CN=C(c2ccc(Cl)cc2)c2cc(Cl)ccc21 [Ro-5-4864]	clonazepan>diazepam>Ro-5-4864

System: binding sites of (^3 H) diazepam in the kidney
Test: not given
Settings: kidney / peripheral level, in words; cited from earlier work

Structure (SMILES)	activity at the binding sites of (^3 H) diazepam in the kidney (peripheral level)
CN1C(=O)CN=C(c2ccc(Cl)cc2)c2cc(Cl)ccc21 [Ro-5-4864]	very active at the peripheral level
O=C1CN=C(c2ccccc2Cl)c2cc([N+](=O)[O-])ccc2N1 [clonazepam]	practically inactive

Same assay, conditions: rank order; cited from earlier work

Structure (SMILES)	classification by decreasing affinity, "peripheral" type
CN1C(=O)CN=C(c2ccc(Cl)cc2)c2cc(Cl)ccc21 [Ro-5-4864]	Ro-5-4864>diazepam>clonazepam
O=C1CN=C(c2ccccc2Cl)c2cc([N+](=O)[O-])ccc2N1 [clonazepam]	Ro-5-4864>diazepam>clonazepam
CN1C(=O)CN=C(c2ccccc2)c2cc(Cl)ccc21 [diazepam]	Ro-5-4864>diazepam>clonazepam
